*1 amine or outer side, *2 acyl side, *3 side chain or, on linkers, in order; H or OH if unused. Where no end group is shown, it is not given here. [ ]: non-standard residue; d: D form. βAsp = O=C(O)[C@H](CC(=O)[*:2])N[*:1]
Columns and labels:
[1] = test system: auto-antibodies in RA sera; test: ELISA detection of auto-antibodies in sera on Thy-GA-peptide conjugate coated plates (Example 2); format: binding, human; conditions: sera diluted one-hundred fold; MTP coated with Thy-GA conjugate 10 μg/ml; absorbency at 450 nm
Excerpt: It was investigated whether auto-antibodies would recognise an Asn-315 derived septa-peptide and whether such auto-antibodies are a characteristic feature of rheumatoid arthritis. In order to carry out such investigations the IgG Fc Asn-315 derived (βL) septa-peptide Trp-Leu-Asp-β-Gly-Lys-Glu-Tyr, was manufactured synthetically. The peptide used was a preparation of linear (αL form) Trp-Leu-Asn-Gly-Lys-Glu-Tyr peptide heated to promote isomerisation by the following procedure. The peptide was dissolved in the buffer and heated for 4 hours at 90° C. to promote isomerisation and/or optical inversion. The resulting mix of isomerised (βL) optically inverted (αD and βD) and linear (αL) peptides were analysed by RP-HPLC using a 15-35% acetonitrile gradient in 0.1% TFA over 10 minutes with a flow rate of 1 ml/min, and the isomerisation status of the resulting peaks were studied by amino-acid analysis as described above. This peptide was dissolved at 5 mg/ml in 0.2 M Na-Phosphate pH 9.2. […]
0.5 ml thyroglobulin (30 mg/ml) in 0.1 M Na-phosphate buffer pH 8.0, was added drop-wise (over 2 minutes) and under constant mixing to 0.5 mL of the following solution: 10% GA, 40% H2O, 50% 0.2 M Na-Phosphate pH 8.0. […] The final volume was adjusted to 1500 μL and the protein concentration was determined by a BioRad protein assay performed according to the manufacturers instructions. […]

[2] = test system: RA autoantibodies; test: Competition ELISA: binding of RA autoantibodies to Thy-GA-Trp-Leu-*Asx-Gly-Lys-Glu-Tyr coated plates (Example 3); parameters: species or system human; conditions: competitor 50 μl of 50 μg/ml pre-incubated with serum 17 hours at 4° C.; 6 RA sera
Experimental: The Thy-GA-Trp-Leu-*Asx-Gly-Lys-Glu-Tyr conjugate was dissolved in PBS to a final concentration of 10 μg/ml, and 100 μL of this solution is pipetted into the wells of a micro-titre-plate (MTP, flat-well polysorb, Nunc). the plate was blocked as described (Bonde et al 1994), and serum samples diluted one-hundred fold in 10 mM Na-phosphate, 140 mM NaCl, 0.1% tween-20, 1% BSA pH 7.4 (assay buffer) were added. The MTP was left for one hour ±5 minutes on a rotary shaker at 20° C. The plates were washed five times in washing buffer (25 mM tris, 140 mM NaCl, 0.1% tween-20 pH 7.4), by a manual plate washer. One-hundred μL assay buffer containing a one-thousand fold dilution of Perxidase conjugated rabbit anti human λ-chains (Dako 063) and κ-chains (Dako 013) was added into each well. The MTP was again incubated for one hour ±5 minutes on a rotary mixer at 20° C. After 5 times washing, 100 μl of peroxidase substrate was added (3,3′,5,5′ tetramethylbenzidine dihydrochloride (TMB), Kirkegaard & Perry Laboratories, USA) and incubated for 15±2 minutes at room temperature (18-22° C.) in the dark. After addition of 0.18 M H2SO4, the absorbency was measured at 450 nm.
The experiment was carried out as follows. Serum samples were diluted one-hundred fold in 10 mM Na-phosphate, 140 mM NaCl, 0.1% tween-20, 1% BSA pH 7.4 (assay buffer). Two-hundred μl was added to 1.5 ml polypropylene tubes followed by addition of 50 μl of the following reagents dissolved in assay buffer at a concentration of 50 μg/ml:
The tubes were placed at 4° C. for 17 hours, and one-hundred μl of the mixture was added into MTP coated with Thy-GA-Trp-Leu-*Asx-Gly-Lys-Glu-Tyr conjugate. The assay was performed as described above under example 2.

[3] = test system: auto-antibodies reactive with isomerised IgG Fc Asn-315 derived peptides; test: Homogeneous RIA with 125I Thy-GA-Trp-Leu-*Asx-Gly-Lys-Glu-Tyr tracer, competition with peptides (Example 4); format: binding, human; conditions: highest concentration (10,000 ng/ml); P-0.01 by Student's T-Test
Experimental: A homogeneous RIA assay was developed for measurement of auto-antibodies with reactivity towards the isomerised form of the epitope Trp-Leu-Asn-Gly-Lys-Glu-Tyr derived from the IgG CH2 region. The assay was performed by incubating serum samples with ^125I Thy-GA-Trp-Leu-*Asx-Gly-Lys-Glu-Tyr overnight followed by precipitation of immune-complexes with protein A Sepharose.
Serum samples are diluted 1:200 in IMP buffer (IMP-buffer: 10 mm Na-Phosphate, pH 7.4, 140 mM NaCl, 5 mM EDTA, 0.5% Triton X-100, 0.1% BSA, 10 μg/ml soy-bean trypsin inhibitor). A Thy-GA-Trp-Leu-*Asx-Gly-Lys-Glu-Tyr conjugate is prepared as described in example 2 and iodinated with ^125I using the chloramine T protocol: 100 μg of the conjugate is diluted in 0.25 M Na2HPO4 to a total volume of 140 μl. 1.5 mCi Na^125I is added followed by 10 μL Chloramin-T (1 mg/ml, prepared freshly). The solution is vortexed for 30 seconds and 150 μL methionine (1 mg/ml) is added and immediately vortexed for 120 sec. The tracer is purified on size exclusion column (type: BIOSEP SEC S-2000, size: 300×7.80 mm) equilibrated with PBS containing 1% BSA Plow rate 1.0 ml/min. 500 μl fractions are collected and analysed in a scintillation counter (γ-counter). The fractions containing the tracer are pooled and used in the homogeneous RIA assay format. […]

[4] = test system: Lewis rats; test: Induction of Experimental Autoimmune Encephalomyelitis by immunisation with MBP87-99 peptides (Example 7); format: in vivo, rat; conditions: for incidence of full-blown EAE (clinical score ≧2) / time of minimum weight / reduction of weight compared to PBS controls at minimum: Lewis rats, 200 μg peptide in CFA i.d.; for reduction of weight compared to PBS controls at minimum: 16 days post immunization
Excerpt: Experimental Autoimmune Encephalomyelitis (EAE) is a paralytical central nervous system (CNS) disease that can be induced readily in susceptible animals by immunisation with myelin proteins. In this experiment MBP87-99 peptides (VHFFKNIVTPRTP) in linear and isomerised forms were used for induction of clinical EAE in Lewis rats.
36 female Lewis (L haplotype, Harlan) rats, 8 weeks of age were used in the experiment.
The animals were randomly assigned to one of the following three treatment groups: 1) a group receiving Asn or isoAsp MBP87-99 peptides 2) a positive control group receiving whole guinea pig MBP, and a negative control receiving PBS. The study was performed in a blinded fashion where the observer was unaware of the treatment of the animal. Below a detailed description of the three treatment groups is provided.
(§1) 1) MBP87-99 Group: Peptides were dissolved in PBS (2 mg/ml). The peptide solution was mixed 1:1 with CFA supplemented with Mycobacterium tubercolosum H37RA, 4 mg/ml and mixed until an emulgate Wars formed. 200 μl emulgate was injected per rat, intra-dermally (i.d.) in the root of the tail (containing 200 μg MBP87-99 and 400 μg Mycobacterium).
The neurological function in immunised animals was evaluated daily. The evaluation was performed blinded by an observer unaware of the treatment groups and codes used in the experiment. This evaluation was performed daily, where the clinical signs of EAE were noted. The clinical signs of EAE were scored according to the following scale: grade 0=no clinical signs, grade 1=tail paralysis or unsteady gait, grade 2=hind leg paraparesis, grade 3=hind leg paralysis, grade 4=complete paralysis (tetraplegia) and grade 5 moribound state or death.
The weight of animals was also measured on a daily basis, as one of the earliest signs of EAE is a weight reduction. The weight of the MBP and peptide immunised animals was compared to the PBS control-group.

[5] = test system: Lewis rats; test: Oral tolerance: feeding of isoAspartyl MBP87-99 before EAE induction (Example 8); format: in vivo, rat
Experimental: 32 female Lewis (L haplotype, Harlan) rats, 8 weeks of age were used in the experiment.
as §1, with “Animals were immunised with the iso-aspartyl form of MBP87-99.” for “1) MBP87-99 Group:”, “mg/).” for “mg/ml).”, “was” for “Wars”
The solutions containing the MBP87-99 isoAspartyl peptides are fed to the animals using a plastic syringe. Control animals are given PBS alone. The effect of the oral administered peptide preparations is investigated at two dosing regimens (one dose 7 days before immunisation vs. 3 doses at one-week intervals before the immunisation. Furthermore, the effect of the dose of orally administered *Asx containing peptide on disease expression is investigated. Rats are fed various amounts of the peptide listed above 14 days before the day of immunisation (day −14) and at day −7 and 0 (day of immunisation). The rats are given either 25, 100 or 500 μg of the peptide, and eight rats are allocated to each treatment regimen as indicated in the table below.
The disease progression was monitored daily by scoring the neurological function in immunized animals as described in example 7. In addition animals were weighed daily. In addition, the animals were sacrificed sixteen days after immunisation for histopathological examination. The rat brains and spinal cords were dissected, fixed in 70% ethanol, containing 5% acetic acid and 4% formalin, dehydrated and embedded in paraffin. Multiple 5 μm thick section were prepared from cerebellum, brain stem, spinal cord C1-4 and L1-6 and stained with hematoxylin-eosin. The frequency of inflammatory infiltrates were scored, using hematoxylineosin stained section, as follows: 0 No inflammation, 1 small number of perivascular infiltration present in the tissue, 2 inflammation with several perivascular infiltrates, and 3 several perivascular infiltrates and tissue necrosis. […]

Row | competition of binding of RA autoantibodies to Thy-GA-Trp-Leu-*Asx-Gly-Lys-Glu-Tyr coated plates [2] | Substance | autoantibody reactivity of RA RF+ sera compared with RA RF- and control sera (ELISA signal) [1] | reactivity in competition RIA (percent inhibition by competing peptide), group basis [3] | incidence of full-blown EAE (clinical score ≧2) [4] | time of minimum weight [4] | reduction of weight compared to PBS controls at minimum [4] | also measured
1 | able to compete out the binding | Thy-GA-Trp-Leu-*Asx-Gly-Lys-Glu-Tyr: peptide coupled to thyroglobulin with glutaraldehyde | – | significant reactivity | – | – | – | –
2 | could be competed out | Trp-Leu-*Asx-Gly-Lys-Glu-Tyr | elevated autoantibody reactivity | – | – | – | – | –
3 | able to compete out the binding | Trp-Leu-Asp-β-Gly-Lys-Glu-Tyr | – | significant reactivity | – | – | – | –

The remaining lines, values behind:

Row | Substance | competition of binding of RA autoantibodies to Thy-GA-Trp-Leu-*Asx-Gly-Lys-Glu-Tyr coated plates [2] | autoantibody reactivity of RA RF+ sera compared with RA RF- and control sera (ELISA signal) [1] | reactivity in competition RIA (percent inhibition by competing peptide), group basis [3] | incidence of full-blown EAE (clinical score ≧2) [4] | time of minimum weight [4] | reduction of weight compared to PBS controls at minimum [4] | also measured
4 | Thy-GA-Glu-Lys-Ala-His-*Asx-Gly-Gly-Arg: another irrelevant Thy-GA conjugate [reference compound] | – | no differentiation between the groups | – | – | – | – | –
5 | VHFFKNIVTPRTP [Asn MBP87-99, non-modified MBP87-99 peptide, reference compound] | – | – | – | 75% | 16 days post immunization | 26% | fraction of animals affected by EAE with relatively mild symptoms (clinical score <3) ([4]; scale grade 0-5): one third
6 | isoAsp MBP87-99: MBP87-99 peptide (VHFFKNIVTPRTP) in isomerised form, Asn 92 giving iso-Asp (VHFFK[βAsp]IVTPRTP) | – | – | – | 25% | 16 days post immunization | 19% | EAE development after multiple 500 μg oral feedings ([5]; 500 μg fed at days -14, -7 and 0): complete suppression; EAE development after multiple oral feedings ([5]; fed at days -14, -7 and 0 before immunisation with iso-aspartyl MBP87-99): complete suppression; mean histological score (number of inflammation foci) compared to controls ([5]; multiple oral doses, sixteen days after immunisation, P<0.05): significantly reduced; EAE induction (result in words) ([4]; onset, peak score day and score levels comparable to non-modified control peptide): induced significant EAE; clinical score of all animals affected with EAE ([4]; scale grade 0-5): ≥ 3
